# Data from article PMC9504842, “Comprehensive Metabolic Profiling of Euphorbiasteroid in Rats by Integrating UPLC-Q/TOF-MS and NMR as Well as Microbial Biotransformation” (Metabolites, 2022).
# How the values were obtained:
# [1] = tested on: Cunninghamella elegans bio-110930; test: Microbial transformation of euphorbiasteroid, metabolite detection; conditions: C. elegans bio-110930 culture with euphorbiasteroid
# Protocol: The biotransformation process was conducted at two scales: preliminary screening and preparative. Preliminary screening scale biotransformation of euphorbiasteroid was carried out in 250 mL Erlenmeyer flasks containing 100 mL of liquid medium. The flasks were placed on a rotary shaker (160 rpm, 28 °C). A standard two-stage fermentation protocol was employed in all experiments. After 2 days of pre-culture, the substrates of 5 mg (dissolved in 0.5 mL of acetone) were added into each flask. Taking 1 mL samples on days 0, 2, 4, 7, 10, and 14, samples were centrifuged and the degree of transformation was compared to controls on TLC and HPLC, and a 2-μL aliquot of the supernatant was directly injected into the UPLC-Q-TOF-MS system. Culture controls consisted of sterile medium, in which microorganisms were grown under identical conditions without substrate. Substrate controls were composed of sterile medium and the same amount of substrate incubated under the same conditions without microorganisms.
# (§1) First, the metabolites of euphorbiasteroid in rats (plasma, urine, and feces), RLMs, and C. elegans culture medium were predicted by setting the prototype components and potential biological metabolic reactions in UNIFI 4.1 software. Then, the predicted metabolites in each sample were further compared according to the characteristic mass spectrum behaviors (including parent ions, internal cleavage in the ion source, and characteristic fragment ions of each metabolite) and retention times.
# [2] = In vitro incubation of euphorbiasteroid with rat liver microsomes, metabolite detection; type: in vitro ADME; conditions: 37 °C, 1 h, NADPH regenerating system
# Protocol: The microsomal incubation approach was based on previous metabolism studies published by Wintermeyer et al. and Franziska et al.. A 200 μL incubation system containing 10 μL of solution A, 2 μL of solution B, 5 μL of rat liver microsomes (20 mg/mL) and 182 μL 0.1 M PBS buffer (pH = 7.4) was constructed. The above solution was heated in a 37 °C water bath, then 1 μL of euphorbiasteroid (dissolved in DMSO solution, 10 mM) was used to start the reaction, and the mixture was then incubated at 37 °C for 1 h. The reactions were terminated by the addition of 200 μL of ice-cold acetonitrile. The mixture was then centrifuged at 13,000 rpm for 10 min, and a 2-μL aliquot of the supernatant was directly injected into the UPLC-Q-TOF-MS system.
# as §1
# [3] = Metabolite detection in rats (plasma, urine, feces) after oral euphorbiasteroid by UPLC-Q/TOF-MS; type: in vivo, Sprague-Dawley rats; conditions: single oral dose 100 mg/kg euphorbiasteroid
# Protocol: For metabolite separation and detection, chromatographic analyses were performed using a Waters Acquity UPLC I-class system (Waters, Milford, MA, USA), equipped with an auto-sampler, a binary solvent delivery system, an online degasser, and a photodiode array detector. An ACQUITY UPLC® HSS T3 column (2.1 × 150 mm, 1.8 μm, Waters) protected with a HSS T3 VanGuard ™ Pre-Column 3/Pk (2.1 × 5.0 mm, 1.8 μm, Waters) was used. The optimized parameters were set as follows: the mobile phase consisted of eluent A (0.1% formic acid in water, v/v) and eluent B (acetonitrile). The flow rate was 0.3 mL/min. The column and auto-sampler temperatures were maintained at 40 °C and 4 °C, respectively. The gradient elution program was optimized as follows: 0–9 min, 30–70% B; 9–13 min, 70–90% B; 13–17 min, 90–100% B; 17–20 min, 100–100% B.
# The mass spectrometry detection was performed on the SYNAPT G2-Si HDMS system, equipped with an electrospray ionization (ESI) source (Waters Corp., Manchester, UK). A positive ion mode was conducted in this analysis. Mass spectrometry conditions were finally set as follows: capillary voltage of 3.0 kV, cone voltage of 40 V, source temperature of 120 °C, and de-solvation temperature of 400 °C. Nitrogen was used as the desolvation and cone gas with a flow rate of 800 and 50 L/h, respectively, and the full-scan mass range was set as m/z 50–1500 Da. In the auto mass spectrometry mode, the collision-induced dissociation energies were set at 0 eV for the precursor ion at the low-energy mode, and the collision-induced dissociation energies were set from 2 to 10 eV for the high-energy mode. Real-time data were calibrated using an external reference (LockSpray™) at a concentration of 0.2 ng/mL with an infusion flow rate of 5 μL/min, generating a reference ion for the positive ion mode (m/z 556.2771) during the UPLC-MS analysis. Data were acquired and processed using MassLynx ™ NT 4.1 software (Waters, Milford, MA, USA).
# Male Sprague-Dawley rats (200–220 g) were commercially supplied by Shanghai Sippr-BK Laboratory Animal Co., Ltd. (Shanghai, China) and were housed in a humidity- and temperature-controlled room (50 ± 10% and 22–24 °C) with a 12-h light/dark cycle. The experimental rats were allowed to access food and water ad libitum and acclimatized to the conditions mentioned above for a week, then fasted overnight but with free access to water before the experiments. Euphorbiasteroid was dissolved in soybean oil solution (containing 0.5% ethanol) to form a concentration of 10 mg/mL. A single dose of 100 mg/kg euphorbiasteroid was orally administered to rats and the same concentration of soybean oil solution (containing 0.5% ethanol) was administered as a blank control. All animal procedures were performed in accordance with the Guidelines for Care and Use of Laboratory Animals of Naval Medical University and approved by the Animal Ethics Committee of Naval Medical University.
# Blood samples (0.5 mL) were collected from six rats through the orbital sinus before administration (blank sample) and 0.25, 0.5, 1, 2, 4, 6, and 12 h after administration. Plasma samples were prepared by centrifugation at 4000 rpm for 10 min. For urine and feces sampling, 12 rats were divided into an administration group and a blank group, and were placed separately in stainless steel metabolic cages. Urine and feces samples were collected in containers surrounded by ice over 0–6, 6–12, and 12–24 h after drug administration. The mixed urine samples were centrifuged at 4000 rpm for 10 min at 4 °C to obtain the supernatants, and fecal samples were left in a cool and dry place until dry. All the biological samples were frozen at −80 °C before analysis.
# An aliquot of 200 µL of plasma and urine samples was put in a 1.5 mL tube, respectively. 800 µL of acetonitrile was added and vortexed for 5 min to extract metabolites. Feces samples (1.0 g) were crushed and then ultrasonically extracted with acetonitrile (10 mL) for 30 min. […]
# HK-2 cells = test: CCK-8 cell cytotoxicity assay, HK-2; type: cell-based; conditions: Homo sapiens, HK-2, 72 h, read-out: IC50 (μM) HK-2
# Protocol: (§2) Cell cytotoxicity was determined by the CCK-8 assay. Four strains of human cells (SH-SY5Y) were seeded in 96-well plates at a density of 3 × 10^3 cells/well under 37 °C and 5% CO2 for 12 h and subsequently treated with the test sample solution (euphorbiasteroid and its metabolites, 10 μL) for 72 h. After treatment, each well with 10 μL CCK-8 reagent was incubated for 1–2 h in the incubator. Afterwards, the optical OD-value was measured at 450 nm through a microplate reader. Three multiple wells were set as parallel experimental groups.
# (§3) Euphorbiasteroid and its metabolites were tested for their cytotoxicity on human cell lines SH-SY5Y, LO2, AC-16, and HK-2 by the CCK-8 assay. […] Therefore, considering the high content of euphorbiasteroid in Euphorbiae semen, it was speculated that the metabolites from hydroxylation and hydrolysis might be the potential toxic constituents of Euphorbiae semen.
# [4] = tested on: SH-SY5Y neuroblastoma cells; test: CCK-8 cell cytotoxicity assay, SH-SY5Y; type: cell-based; conditions: Homo sapiens, 72 h, read-out: IC50 (μM) SH-SY5Y
# Protocol: as §2, §3
# AC-16 cells = test: CCK-8 cell cytotoxicity assay, AC-16; type: cell-based; conditions: Homo sapiens, 72 h, read-out: IC50 (μM) AC-16
# Protocol: as §2, §3
# LO2 cells = test: CCK-8 cell cytotoxicity assay, LO2; type: cell-based; conditions: Homo sapiens, L02, 72 h, read-out: IC50 (μM) LO2
# Protocol: as §2, §3
Compound,Distribution Fungi (metabolite detected) [1],Distribution RLMs (metabolite detected) [2],Distribution Rat Faeces (metabolite detected) [3],Distribution Rat Urine (metabolite detected) [3],Distribution Rat Plasma (metabolite detected) [3],IC50 (HK-2 cells),IC50 [4],IC50 (AC-16 cells),IC50 (LO2 cells)
"CC(=O)OC1C2C(OC(=O)Cc3ccc(O)cc3)C(C)CC2(OC(C)=O)C(=O)C(C)=CC2C(CCC13CO3)C2(C)C (centres unmarked) [Compound M2, 4′-hydroxyl euphorbiasteroid]",√,√,√,√,,,,,
"CC(=O)OC1C2C(OC(=O)Cc3ccccc3O)C(C)CC2(OC(C)=O)C(=O)C(C)=CC2C(CCC13CO3)C2(C)C (centres unmarked) [Compound M5, 2′-hydroxyl euphorbiasteroid]",√,√,√,,√,,,,
"CC(=O)OC1C2C(OC(=O)Cc3ccccc3)C(C)CC2(OC(C)=O)C(=O)C(C)=CC2C(CCC13CO3)C2(C)C (centres unmarked) [Compound M0, Euphorbiasteroid]",,,,,,> 100 µM,55 ± 1.2 µM,97.7 ± 2.13 µM,> 100 µM
euphorbiasteroid 2′-O-β-D-glucopyranoside [Compound M29],√,,,,,,,,
"CC(=O)OC1C2C(OC(=O)CC3=CC=CC(O)C3O)C(C)CC2(OC(C)=O)C(=O)C(C)=CC2C(CCC13CO3)C2(C)C (centres unmarked) [Compound M12, 5′,6′-dihydroxyl dihydroeuphorbiasteroid]",√,√,√,,√,,,,
CC(=O)OC1C2C(OC(=O)Cc3ccccc3)C(CO)CC2(OC(C)=O)C(=O)C(C)=CC2C(CCC13CO3)C2(C)C (centres unmarked) [Compound M6],,√,√,,√,,,,
CC(=O)OC1C2C(OC(=O)Cc3ccccc3)C(C=O)CC2(OC(C)=O)C(=O)C(C)=CC2C(CCC13CO3)C2(C)C (centres unmarked) [Compound M15],,,√,√,√,,,,
"CC(=O)OC1C2C(OC(=O)C(O)c3ccccc3)C(C)CC2(OC(C)=O)C(=O)C(C)=CC2C(CCC13CO3)C2(C)C (centres unmarked) [Compound M4, 7′-hydroxyl euphorbiasteroid]",√,√,√,√,√,,,,
"CC(=O)OC1C2C(OC(=O)Cc3ccccc3)C(C)CC2(OC(C)=O)C(=O)C(C)=CC2C(CCC13CO3)C2(C)C(=O)O (stereo not drawn) [Compound M16, 18α-carboxyl euphorbiasteroid]",√,√,√,√,√,,,,
CC(=O)OC1C2C(OC(=O)Cc3ccccc3)C(C(=O)O)CC2(OC(C)=O)C(=O)C(C)=CC2C(CCC13CO3)C2(C)C (centres unmarked) [Compound M17],√,√,√,,√,,,,
CC(=O)OC1C2C(OC(=O)Cc3ccccc3)C(C=O)CC2(OC(C)=O)C(=O)C(C)=CC2C(CCC13CO3)C2(C)C (centres unmarked) [Compound M14],√,,√,√,√,,,,
"CC(=O)OC1C2C(OC(=O)Cc3ccccc3)C(C)CC2(OC(C)=O)C(=O)C(C)=CC2C(CCC13CO3)C2(C)CO (stereo not drawn) [Compound M1, 18α-hydroxyl euphorbiasteroid]",√,√,√,√,√,,,,
"CC(=O)OC1C2C(OC(=O)CC3=CC(O)C(O)C=C3)C(C)CC2(OC(C)=O)C(=O)C(C)=CC2C(CCC13CO3)C2(C)C (centres unmarked) [Compound M13, 3′,4′-dihydroxyl dihydroeuphorbiasteroid]",√,√,√,,√,,,,
CC(=O)O[C@H]1[C@H]2[C@@H](OC(=O)Cc3ccccc3O[C@@H]3O[C@H](CO)[C@@H](O)[C@H](O)[C@H]3O)[C@@H](C)C[C@]2(OC(C)=O)C(=O)/C(C)=C/C2C(CC[C@@]13CO3)C2(C)C (some centres unmarked) [Compound M28],,,√,,,,,,
"CC(=O)OC1C2C(OC(=O)Cc3ccccc3O)C(C)CC2(OC(C)=O)C(=O)C(C)=CC2C(CCC13CO3)C2(C)CO (stereo not drawn) [Compound M8, 18α,2′-dihydroxyl euphorbiasteroid]",√,√,√,√,√,,,,
